Measured values taken from patent US20260027099A1, “OPHTHALMIC COMPOSITIONS COMPRISING BILASTINE, A BETA-CYCLODEXTRIN AND AT LEAST ONE GELLING AGENT” (FAES FARMA, S.A., priority 2018, published 2026).
Like-named read-outs stand apart in the source and are kept apart here.

Key:
[1] = test system: histamine-induced conjunctival vascular permeability; conditions: topical drug administered 2 to 8 hours before subconjunctival histamine challenge; Evans blue dye i.v.; cited from earlier work
[2] = Ocular in vivo biodistribution, bilastine tissue concentration by LC-MS/MS; design: species or system Dutch Belted rabbits; conditions: Dutch Belted, topical, 24 hours post-administration, rabbit, 30 μL of 0.6% w/v formulation in each eye, single occasion
Method: The aqueous ophthalmic formulations of bilastine were prepared at a bilastine concentration of 0.6% w/v. The excipients were as indicated above in Table 1, i.e., also comprised HPB 90 mg/mL, methylcellulose 0.1 mg/mL, sodium hyaluronate 1 mg/mL and glycerin 16.1 mg/mL.
42, 4-5 month-old Dutch Belted rabbits were selected as test subjects. The weight of the animals at treatment start was from 1.6 to 2.1 kg.
Animals received 30 μL of the ophthalmic formulation in each eye on a single occasion. The ophthalmic formulation was placed directly on both eyes of each animal by means of an automatic pipette. A new pipette tip was used for each eye.
The eyes of the test animals were not washed after instillation. Animals were weighed before administration and observed after administration to record any possible clinical sign.
Two to three animals were sacrificed at each time point (0.5, 1, 2, 4, 6, 8, 12 and 24 hours) and the following tissues from both eyes were collected: Aqueous humor, vitreous humor, cornea, conjunctiva, iris/ciliary body, crystalline lens and retina/choroid. Directly after sampling, all solid matrices were weighed (4 decimal precision) to determine the amount of each tissue collected.
Bilastine concentration was determined by LC-MS/MS.
Bilastine analyses were performed according to analytical methods: • PKH/MOA/1022 for rabbit plasma, • PKH/MOA/1042 for rabbit aqueous humor, • PKH/MOA/1043 for rabbit vitreous humor, • PKH/MOA/1028 for rabbit cornea homogenate, • PKH/MOA/1041 for rabbit iris/ciliary body homogenate, • PKH/MOA/1036 for rabbit conjunctiva homogenate, • PKH/MOA/1032 for rabbit crystalline lens homogenate, • PKH/MOA/1029 for rabbit retina/choroid homogenate, which were previously developed and validated at Eurofins|ADME BIOANALYSES according to the Guidance for Industry—Bioanalytical Method Validation—FDA May 2018 and EMA Guideline—EMEA/CHMP/EWP/192217/2009—21 Jul. 2011, in the studies 18-014A to 18-014H.
The analytical methods involved protein precipitation for plasma and involved dilution for other matrices followed by LC-MS/MS analysis using F21201RR (Bilastine-d6) as internal standard.

concentration at 24 h ([2]; conjunctiva, read-out: bilastine concentration in conjunctiva (mean value)): 388 ng/g
concentration at 24 h ([2]; cornea, read-out: bilastine concentration in cornea (mean value)): 28.7 ng/g
concentration at 24 h ([2]; crystalline lens, read-out: bilastine concentration in crystalline lens): 0.12 ng/g
concentration at 24 h ([2]; iris/ciliary body, read-out: bilastine concentration in iris/ciliary body): 12.4 ng/g
concentration at 24 h ([2]; retina/choroid, read-out: bilastine concentration in retina/choroid): 1.91 ng/g
SMILES: CCOCCn1c(C2CCN(CCc3ccc(C(C)(C)C(=O)O)cc3)CC2)nc2ccccc21 [bilastine, 2-[4-(2-{4-[1-(2-Ethoxyethyl)-1H-benzimidazol-2-yl]-1-piperidinyl}ethyl)phenyl]-2-methylpropanoic acid]
ED50 (in vivo anti-histaminic activity) [1]: 50% efficacy was not achieved
